These results are taken from ChEMBL document CHEMBL4818994, “Uncompetitive nanomolar dimeric indenoindole inhibitors of the human breast cancer resistance pump ABCG2” (Eur J Med Chem, 2021).

Data set [1] concerns the target T1, Broad substrate specificity ATP-binding cassette transporter ABCG2 (Homo sapiens, UniProt Q9UNQ0).
T1 sequence (Q9UNQ0 whole entry): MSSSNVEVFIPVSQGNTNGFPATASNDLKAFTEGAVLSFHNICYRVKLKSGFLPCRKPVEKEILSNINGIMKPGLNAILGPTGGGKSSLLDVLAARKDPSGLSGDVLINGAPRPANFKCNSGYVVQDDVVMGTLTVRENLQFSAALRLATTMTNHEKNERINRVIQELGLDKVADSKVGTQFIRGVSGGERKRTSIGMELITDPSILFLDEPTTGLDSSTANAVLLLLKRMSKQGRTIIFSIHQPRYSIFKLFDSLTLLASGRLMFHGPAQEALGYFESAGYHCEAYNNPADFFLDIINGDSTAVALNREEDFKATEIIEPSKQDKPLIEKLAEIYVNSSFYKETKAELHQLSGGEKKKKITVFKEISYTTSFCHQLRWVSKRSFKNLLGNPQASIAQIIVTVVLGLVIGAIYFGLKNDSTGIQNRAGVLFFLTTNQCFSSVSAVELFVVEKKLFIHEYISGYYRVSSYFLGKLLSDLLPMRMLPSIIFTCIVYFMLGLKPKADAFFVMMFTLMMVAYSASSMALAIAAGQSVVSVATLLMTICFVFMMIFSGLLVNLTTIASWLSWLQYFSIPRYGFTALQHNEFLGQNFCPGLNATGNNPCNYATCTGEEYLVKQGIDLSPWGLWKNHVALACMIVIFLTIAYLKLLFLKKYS
The data set can be described thus: Inhibition of human ABCG2 transfected in human HEK293 cells assessed as inhibition of mitoxantrone efflux measured after 30 mins by FACS Calibur cytometric analysis. It is filed as cell-based. On the technique in general: Flow cytometry measures light scatter and fluorescence of single cells or particles in a stream.

The target of data set [2] is T1, Broad substrate specificity ATP-binding cassette transporter ABCG2. The data set can be described thus: Mixed inhibition of human ABCG2 transfected in human HEK293 cells assessed as Ki1 for inhibition of mitoxantrone efflux measured after 30 mins by FACS Calibur cytometric analysis. It is filed as cell-based.
Data set [3] shares this target. The data set can be described thus: Mixed inhibition of human ABCG2 transfected in human HEK293 cells assessed as Ki2 for inhibition of mitoxantrone efflux measured after 30 mins by FACS Calibur cytometric analysis. The data set is classed as cell-based.
For data set [4], the system named is ABCG2. The data set can be described thus: Therapeutic ratio of IG50 for growth inhibition of human HEK293 cells overexpressing human ABCG2 to IC50 for inhibition of human ABCG2 expressed in human HEK293 cells. It is filed as toxicity, cell-based.
Data set [5] in a line: Growth inhibition of human HEK293 cells overexpressing human ABCG2 after 72 hrs by MTT assay. The data set is classed as ADME, cell-based. The note with it: read-out: IG50. A general note: Tetrazolium dyes change colour on reduction, which living cells bring about.
Data set [6] has as its target T2, ATP-dependent translocase ABCB1 (Homo sapiens, UniProt P08183). As to the kind of experiment: Inhibition of human P-gp1 transfected in mouse NIH3T3 cells assessed as inhibition of Calcein-AM efflux measured after 30 mins by FACS Calibur cytometric analysis. It is filed as cell-based. Particulars: nih3t3, 0.5 h; call rule not given here.
The nature of data set [7]: Growth inhibition of human HEK293 cells after 72 hrs by MTT assay. It is filed as cell-based. The note with it: read-out: IG50.
Data set [8] concerns the target Multidrug resistance-associated protein 1 (Homo sapiens, UniProt P33527). The data set can be described thus: Inhibition of human MRP1 transfected in human HEK293 cells assessed as inhibition of Calcein-AM efflux measured after 30 mins by FACS Calibur cytometric analysis. The data set is classed as cell-based. Particulars: hek293, 0.5 h.
Data set [9] relates to ABCG2. As to the kind of experiment: Therapeutic ratio of IG50 for growth inhibition of human HEK293 cells to IC50 for inhibition of human ABCG2 expressed in human HEK293 cells. It is filed as toxicity, cell-based.
The target of data set [10] is T1, Broad substrate specificity ATP-binding cassette transporter ABCG2. As to the kind of experiment: Uncompetitive inhibition of human ABCG2 transfected in human HEK293 cells assessed as Ki2 for inhibition of mitoxantrone efflux measured after 30 mins by FACS Calibur cytometric analysis. The data set is classed as cell-based.
Data set [11] shares this target. As to the kind of experiment: Mixed inhibition of human ABCG2 transfected in human HEK293 cells assessed as Ki2 for inhibition of Hoechst33342 efflux measured after 30 mins by FACS Calibur cytometric analysis. The data set is classed as cell-based.
The target is the same in data set [12]. The data set can be described thus: Mixed inhibition of human ABCG2 transfected in human HEK293 cells assessed as Ki1 for inhibition of Hoechst33342 efflux measured after 30 mins by FACS Calibur cytometric analysis. It is filed as cell-based.
The target is the same in data set [13]. As to the kind of experiment: Non-competitive inhibition of human ABCG2 transfected in human HEK293 cells assessed as Ki2 for inhibition of mitoxantrone efflux measured after 30 mins by FACS Calibur cytometric analysis. It is filed as cell-based.
Data set [14] deals with T2, ATP-dependent translocase ABCB1. As to the kind of experiment: Inhibition of human P-gp1 transfected in mouse NIH3T3 cells assessed as inhibition of Rhodamine123 efflux measured after 30 mins by FACS Calibur cytometric analysis. It is filed as cell-based. The note with it: nih3t3, 0.5 h.

T2 sequence (P08183 whole entry): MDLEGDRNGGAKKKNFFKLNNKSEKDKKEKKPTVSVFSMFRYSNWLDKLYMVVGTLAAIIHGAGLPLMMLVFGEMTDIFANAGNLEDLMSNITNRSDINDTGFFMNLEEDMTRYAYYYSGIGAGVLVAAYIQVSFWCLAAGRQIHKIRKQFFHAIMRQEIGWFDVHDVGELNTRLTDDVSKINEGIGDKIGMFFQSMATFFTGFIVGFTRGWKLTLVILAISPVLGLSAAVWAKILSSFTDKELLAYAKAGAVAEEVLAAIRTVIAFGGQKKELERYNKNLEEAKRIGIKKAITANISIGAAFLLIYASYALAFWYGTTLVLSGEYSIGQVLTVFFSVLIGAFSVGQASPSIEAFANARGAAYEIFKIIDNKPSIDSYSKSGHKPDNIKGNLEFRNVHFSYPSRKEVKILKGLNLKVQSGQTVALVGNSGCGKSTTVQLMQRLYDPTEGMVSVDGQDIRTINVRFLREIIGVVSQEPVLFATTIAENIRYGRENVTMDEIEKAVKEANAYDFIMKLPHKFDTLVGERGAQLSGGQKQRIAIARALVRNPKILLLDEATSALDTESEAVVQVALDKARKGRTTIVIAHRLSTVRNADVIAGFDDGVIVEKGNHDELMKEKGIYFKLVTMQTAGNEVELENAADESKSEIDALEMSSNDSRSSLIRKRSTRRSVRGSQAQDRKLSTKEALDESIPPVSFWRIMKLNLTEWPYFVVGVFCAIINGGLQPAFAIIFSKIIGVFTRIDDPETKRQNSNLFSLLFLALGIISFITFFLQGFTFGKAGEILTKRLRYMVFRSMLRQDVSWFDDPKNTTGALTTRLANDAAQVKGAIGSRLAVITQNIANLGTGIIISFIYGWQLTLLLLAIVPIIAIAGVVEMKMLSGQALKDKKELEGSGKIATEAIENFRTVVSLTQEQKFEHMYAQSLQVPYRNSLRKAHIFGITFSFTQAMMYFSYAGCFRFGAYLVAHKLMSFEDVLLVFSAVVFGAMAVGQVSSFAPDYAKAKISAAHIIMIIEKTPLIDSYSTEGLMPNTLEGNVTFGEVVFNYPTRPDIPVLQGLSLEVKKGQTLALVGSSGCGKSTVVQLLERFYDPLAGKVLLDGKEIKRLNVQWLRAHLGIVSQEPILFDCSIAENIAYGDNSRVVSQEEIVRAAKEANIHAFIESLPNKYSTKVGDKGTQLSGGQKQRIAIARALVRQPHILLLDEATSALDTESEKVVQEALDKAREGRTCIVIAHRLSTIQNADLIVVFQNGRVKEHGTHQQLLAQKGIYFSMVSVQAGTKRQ
Chain of Multidrug resistance-associated protein 1 (P33527 whole entry): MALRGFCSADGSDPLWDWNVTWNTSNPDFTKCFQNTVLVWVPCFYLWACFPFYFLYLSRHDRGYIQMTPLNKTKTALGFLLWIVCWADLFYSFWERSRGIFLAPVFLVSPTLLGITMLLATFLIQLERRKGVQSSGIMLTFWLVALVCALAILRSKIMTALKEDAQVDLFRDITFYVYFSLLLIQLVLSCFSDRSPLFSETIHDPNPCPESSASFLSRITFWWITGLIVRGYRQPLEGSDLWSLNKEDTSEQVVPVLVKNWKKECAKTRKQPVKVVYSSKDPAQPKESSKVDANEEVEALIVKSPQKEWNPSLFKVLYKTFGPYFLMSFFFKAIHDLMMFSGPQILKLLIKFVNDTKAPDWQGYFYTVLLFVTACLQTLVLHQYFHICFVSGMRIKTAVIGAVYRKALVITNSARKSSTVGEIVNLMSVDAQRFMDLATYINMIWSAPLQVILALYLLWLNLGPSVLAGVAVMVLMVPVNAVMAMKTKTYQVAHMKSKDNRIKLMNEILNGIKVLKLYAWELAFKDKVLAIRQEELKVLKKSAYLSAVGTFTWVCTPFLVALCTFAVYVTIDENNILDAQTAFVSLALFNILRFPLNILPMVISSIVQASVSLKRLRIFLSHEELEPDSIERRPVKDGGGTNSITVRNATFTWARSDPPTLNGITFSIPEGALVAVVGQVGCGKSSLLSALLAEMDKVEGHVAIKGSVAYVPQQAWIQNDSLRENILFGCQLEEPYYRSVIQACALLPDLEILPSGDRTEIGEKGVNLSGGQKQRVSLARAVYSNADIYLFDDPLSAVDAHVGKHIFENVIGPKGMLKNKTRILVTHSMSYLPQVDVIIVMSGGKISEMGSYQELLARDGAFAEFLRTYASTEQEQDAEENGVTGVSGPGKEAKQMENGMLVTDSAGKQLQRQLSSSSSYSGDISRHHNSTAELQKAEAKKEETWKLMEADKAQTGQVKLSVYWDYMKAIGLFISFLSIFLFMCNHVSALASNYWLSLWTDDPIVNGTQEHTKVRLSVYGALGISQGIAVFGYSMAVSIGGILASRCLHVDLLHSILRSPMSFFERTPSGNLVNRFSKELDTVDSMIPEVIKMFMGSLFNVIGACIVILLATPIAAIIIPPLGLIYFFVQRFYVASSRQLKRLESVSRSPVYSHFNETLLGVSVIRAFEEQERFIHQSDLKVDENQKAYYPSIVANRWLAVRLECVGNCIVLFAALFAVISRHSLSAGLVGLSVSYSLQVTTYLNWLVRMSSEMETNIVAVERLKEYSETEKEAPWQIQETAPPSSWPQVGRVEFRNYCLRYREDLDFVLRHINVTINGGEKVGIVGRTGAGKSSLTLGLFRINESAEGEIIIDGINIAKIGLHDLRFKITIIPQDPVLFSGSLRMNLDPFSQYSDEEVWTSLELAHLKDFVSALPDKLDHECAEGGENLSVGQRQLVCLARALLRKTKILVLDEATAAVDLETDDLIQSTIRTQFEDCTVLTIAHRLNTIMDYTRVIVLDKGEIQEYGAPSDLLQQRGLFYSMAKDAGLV

For the compound `CC1CC(=O)c2c3c(n(CCc4ccccc4)c2C1)-c1ccccc1C3=O` (stereo unspecified), in data set [1], the IC50 was 768 nM. Moreover, the Ki in data set [2] amounted to 323 nM; in data set [3], 843 nM.
For the compound `COc1cccc(CCn2c3c(c4c(OCCCCCCOc5ccc6c(c5)-c5c(c7c(n5CCc5ccccc5)CC(C)CC7=O)C6=O)cccc42)C(=O)c2ccccc2-3)c1` (stereo unspecified), the selectivity ratio with ABCG2 [4] and with ABCG2 [9] was more than 3070 throughout. Also, in [1], the IC50 turned out to be 32.6 nM. The GI50 at 72 h in data set [5] and in data set [7] was more than 100000 nM throughout. Also, the “inhibition (INH)” value in data set [6] and in data set [8] was “Not Active” each time. The Ki in [2] was found to be 192 nM; in data set [3] it was 42 nM; in [10] it was 38 nM.
For the compound `CC1CC(=O)c2c3c(n(CCc4ccccc4)c2C1)-c1cc(OCCCCOc2ccc4c(c2)-c2c(c5c(n2CCc2ccccc2)CC(C)CC5=O)C4=O)ccc1C3=O` (stereo unspecified), the selectivity ratio in the data set with ABCG2 [4] and in the data set with ABCG2 [9] was 126 throughout. Further, the IC50 in data set [1] amounted to 867 nM. Also, the GI50 at 72 h in data set [5] and in [7] was 109000 nM throughout. Besides, the “inhibition (INH)” value in [6] and in data set [8] was “Not Active” each time.
`CC1CC(=O)c2c3c(n(CCc4ccccc4)c2C1)-c1cc(OCCCCCCOc2ccc4c(c2)-c2c(c5c(n2CCc2ccccc2)CC(C)CC5=O)C4=O)ccc1C3=O` (stereo unspecified): the IC50 in data set [1] is more than 10000 nM.
For `COc1cccc(CCn2c3c(c4c(OCCCCCCCCCCOc5ccc6c(c5)-c5c(c7c(n5CCc5ccccc5)CC(C)CC7=O)C6=O)cccc42)C(=O)c2ccccc2-3)c1` (stereo unspecified), the IC50 in [1] is more than 10000 nM.
Same read-out and setting: the same measure for `COc1cccc(CCn2c3c(c4c(OCCCCCCCCOc5cccc6c5c5c(n6CCc6cccc(OC)c6)-c6ccccc6C5=O)cccc42)C(=O)c2ccccc2-3)c1`: more than 10000 nM.
Take `CC1CC(=O)c2c3c(n(CCc4ccccc4)c2C1)-c1cc(OCCOc2ccc4c(c2)-c2c(c5c(n2CCc2ccccc2)CC(C)CC5=O)C4=O)ccc1C3=O` (stereo unspecified): the selectivity ratio in the data set on ABCG2 [4] and in the data set on ABCG2 [9] was 758 in each case. The IC50 in data set [1] is 319 nM. Also, the GI50 at 72 h in data set [5] and in data set [7] was 242000 nM in each case. In addition, the “inhibition (INH)” value in data set [6] and in data set [8] was “Not Active” in each case.
Consider `COc1cccc(CCn2c3c(c4c(OCCCCCCCCCCOc5cccc6c5c5c(n6CCc6cccc(OC)c6)-c6ccccc6C5=O)cccc42)C(=O)c2ccccc2-3)c1`, for which, in data set [1], the IC50 is more than 10000 nM.
Consider `COc1cccc(CCn2c3c(c4c(OCCCCOc5ccc6c(c5)-c5c(c7c(n5CCc5ccccc5)CC(C)CC7=O)C6=O)cccc42)C(=O)c2ccccc2-3)c1` (stereo unspecified), for which the selectivity ratio with ABCG2 [4] and in the data set with ABCG2 [9] was 2230 in each case. The concentration for half-maximal inhibition (IC50) in data set [1] worked out at 133 nM. The GI50 at 72 h in data set [5] and in data set [7] was 295000 nM in each case. For the same compound, the “inhibition (INH)” value in [6] and in [8] was “Not Active” each time.
As to `COc1cccc(CCn2c3c(c4c(OCCCCOc5cccc6c5c5c(n6CCc6cccc(OC)c6)-c6ccccc6C5=O)cccc42)C(=O)c2ccccc2-3)c1`, the selectivity ratio was found to be 2160 in the data set on ABCG2 [4] and 3300 in the data set with ABCG2 [9]. For the same compound, the IC50 in [1] worked out at 24.1 nM. Also, the GI50 at 72 h in data set [5] is 51800 nM; in data set [7], 79600 nM. Moreover, the “inhibition (INH)” value in [6] and in [8] was “Not Active” in each case. Also, the results for the inhibition constant Ki in data set [11], in data set [10] and in data set [12] were 29 nM, 17 nM and 113 nM, respectively.
In the case of `COc1cccc(CCn2c3c(c4c(OCCCCCCOc5cccc6c5c5c(n6CCc6cccc(OC)c6)-c6ccccc6C5=O)cccc42)C(=O)c2ccccc2-3)c1`, the selectivity ratio with ABCG2 [4] and in the data set with ABCG2 [9] was not below 70000 throughout. Further, the IC50 in data set [1] came out at 27.4 nM. Also, the “inhibition (INH)” value in data set [6] and in data set [8] was “Not Active” in each case.
On to `COc1cccc(CCn2c3c(c4c(O)cccc42)C(=O)c2ccccc2-3)c1`, for which the IC50 in data set [1] was 732 nM. Also, the Ki in [13] was 250 nM; in data set [2], 188 nM; in [3] it was 294 nM.
Consider `CC1CC(=O)c2c3c(n(CCc4ccccc4)c2C1)-c1cc(OCCCCCCCCOc2ccc4c(c2)-c2c(c5c(n2CCc2ccccc2)CC(C)CC5=O)C4=O)ccc1C3=O` (stereo unspecified), for which the IC50 in data set [1] is more than 10000 nM.
Same read-out and setting: the same measure for `COc1cccc(CCn2c3c(c4c(OCCCCCCCCCCCCOc5cccc6c5c5c(n6CCc6cccc(OC)c6)-c6ccccc6C5=O)cccc42)C(=O)c2ccccc2-3)c1`: more than 10000 nM; for `CC1CC(=O)c2c3c(n(CCc4ccccc4)c2C1)-c1cc(OCCCCCCCCCCCCOc2ccc4c(c2)-c2c(c5c(n2CCc2ccccc2)CC(C)CC5=O)C4=O)ccc1C3=O` (stereo unspecified): more than 10000 nM.
Still for that read-out and setting: then `CC1CC(=O)c2c3c(n(CCc4ccccc4)c2C1)-c1cc(OCCCCCCCCCCOc2ccc4c(c2)-c2c(c5c(n2CCc2ccccc2)CC(C)CC5=O)C4=O)ccc1C3=O` (stereo unspecified), with more than 10000 nM; and `COc1cccc(CCn2c3c(c4c(OCCCCCCCCCCCCOc5ccc6c(c5)-c5c(c7c(n5CCc5ccccc5)CC(C)CC7=O)C6=O)cccc42)C(=O)c2ccccc2-3)c1` (stereo unspecified), with more than 10000 nM.
In the case of `COc1cccc(CCn2c3c(c4c(OCCCCCCCCOc5ccc6c(c5)-c5c(c7c(n5CCc5ccccc5)CC(C)CC7=O)C6=O)cccc42)C(=O)c2ccccc2-3)c1` (stereo unspecified), the selectivity ratio in the data set with ABCG2 [4] and in the data set with ABCG2 [9] was more than 52 each time. The IC50 in data set [1] turned out to be 389 nM. For the same compound, the GI50 at 72 h in data set [5] and in data set [7] was more than 20000 nM throughout. The “inhibition (INH)” value in data set [6] and in data set [8] was “Not Active” throughout.
As to `COc1cccc(CCn2c3c(c4c(OCCOc5cccc6c5c5c(n6CCc6cccc(OC)c6)-c6ccccc6C5=O)cccc42)C(=O)c2ccccc2-3)c1`, the IC50 in data set [1] came out at 38.4 nM. The GI50 at 72 h in data set [5] is more than 100000 nM; in data set [7], 917000 nM. Further, the “inhibition (INH)” value in data set [6] and in [8] was “Not Active” in each case. Moreover, in the data set with ABCG2 [9], the selectivity ratio was not below 2630.
As for `COc1cccc(CCn2c3c(c4c(OCCOc5ccc6c(c5)-c5c(c7c(n5CCc5ccccc5)CC(C)CC7=O)C6=O)cccc42)C(=O)c2ccccc2-3)c1` (stereo unspecified), the selectivity ratio in the data set with ABCG2 [4] and in the data set with ABCG2 [9] was 3250 each time. Moreover, the IC50 in data set [1] was determined as 68 nM. Moreover, the GI50 at 72 h in [5] and in [7] was 221000 nM throughout. In addition, the “inhibition (INH)” value in [14] was “Active”.

The IC50 is the point on the concentration scale where inhibition reaches its midpoint. For orientation: Ki means a dissociation constant, usually derived from enzyme kinetics or from competition with a known ligand.
